# Tested on: primary mouse hepatocytes
# Test: Gene expression (Affymetrix Mouse Genome 430 2.0) in primary mouse hepatocytes, true vs false GTX, 24 h and 48 h
# Conditions: log2, corrected for vehicle control
smiles,measurement,setting,value
"CC(=O)Nc1ccc2c(c1)Cc1ccccc1-2 [2-AAF, 2-Acetylaminofluorene]",Gene expression data AF000969 (Cadps2),24 h average,−0.5371
same,Gene expression data AF022072 (Grb10),24 h average,0.5527
same,Gene expression data AF065917 (Lif),24 h average,−0.1242
same,Gene expression data AF204959 (Cyp3a25 /// LOC622249),24 h average,0.2152
same,Gene expression data AF297615 (Ggta1),24 h average,0.03187
same,Gene expression data AI594683 (Dmn),24 h average,−0.2452
same,Gene expression data AI596632 (Ptprg /// LOC632664),24 h average,−0.0981
same,Gene expression data AI987929 (Ndrg1),24 h average,0.8432
same,Gene expression data AK004419 (Fbxl17),24 h average,−0.168
same,Gene expression data AK005731 (1700007K13Rik),24 h average,0.08277
same,Gene expression data AK007766 (1810044A24Rik),24 h average,0.01003
same,Gene expression data AK007854 (1810053B23Rik),24 h average,−0.9008
same,Gene expression data AK009736 (Gpr137b /// LOC664862 /// LOC673335),24 h average,−0.00723
same,Gene expression data AK010447 (Smyd3),24 h average,−0.1751
same,Gene expression data AK014608 (4632434l11Rik),24 h average,−0.09823
same,Gene expression data AK019979 (2610528E23Rik),24 h average,0.3248
same,Gene expression data AV095209 (Mthfd1l),24 h average,0.4403
same,Gene expression data AV141095 (1110033M05Rik),24 h average,−0.2881
same,Gene expression data AV173571 (1700106N22Rik),24 h average,−0.04133
same,Gene expression data AV219418 (Ldhb),24 h average,−0.3695
same,Gene expression data AV223474 (Zdhhc14),24 h average,−0.4459
same,Gene expression data AV298304 (Homez),24 h average,−0.1831
same,Gene expression data AV327248 (Zfp365 /// LOC674611),24 h average,0.0668
same,Gene expression data AV377066 (9130221J18Rik),24 h average,−0.6586
same,Gene expression data AW240761 (Tbc1d5),24 h average,−0.0924
same,Gene expression data AW543460 (Pard3),24 h average,−0.3156
same,Gene expression data AW543723,24 h average,0.1065
same,Gene expression data AW986246 (Maoa),24 h average,0.01853
same,Gene expression data BB027848 (4732466D17Rik),24 h average,−0.252
same,Gene expression data BB043558 (9230114K14Rik),24 h average,−0.1205
same,Gene expression data BB275142 (AW456874),24 h average,−0.02303
same,Gene expression data BB308836 (Ppm1l),24 h average,−0.1499
same,Gene expression data BB318221 (Zdhhc14),24 h average,−0.411
same,Gene expression data BB463610 (4632434l11Rik),24 h average,−0.3778
same,Gene expression data BB526605 (Mipol1),24 h average,0.3466
same,Gene expression data BB770528 (Rai2),24 h average,−0.5052
same,Gene expression data BB821363 (Scfd2),24 h average,−0.1216
same,Gene expression data BC004827 (Psat1),24 h average,0.2797
same,Gene expression data BC008626 (Icam1),24 h average,−0.6353
same,Gene expression data BC010462 (BC010462),24 h average,−0.1475
same,Gene expression data BC012247 (Dcxr),24 h average,−0.08253
same,Gene expression data BC012260 (Psmf1),24 h average,−0.646
same,Gene expression data BC015270 (Hist2h3c2),24 h average,−0.1327
same,Gene expression data BC016073 (Cdkal1),24 h average,−0.1464
same,Gene expression data BC016265 (Ube2e2),24 h average,−0.3984
same,Gene expression data BC019882 (Acaa1b),24 h average,1.3218
same,Gene expression data BC025501 (Aaas),24 h average,−0.1475
same,Gene expression data BC025837 (Sbk1),24 h average,−0.2976
same,Gene expression data BC025915 (Cova1),24 h average,−0.1568
same,Gene expression data BC026422 (Tgm1),24 h average,−0.1664
same,Gene expression data BF719766 (Thyn1),24 h average,−0.0442
same,Gene expression data BG065754 (Ccng1),24 h average,0.0569
same,Gene expression data BG066903 (Kif16b),24 h average,−0.2125
same,Gene expression data BG069873 (Gnb1l),24 h average,−0.2747
same,Gene expression data BG070887 (Gtdc1),24 h average,−0.01607
same,Gene expression data BG076151 (Ppm1d),24 h average,−0.1219
same,Gene expression data BG261907 (Large),24 h average,−0.2502
same,Gene expression data BI651416 (Cdc42bpg),24 h average,0.1552
same,Gene expression data BI660702 (Ell3),24 h average,0.1219
same,Gene expression data BM198879 (Ercc5),24 h average,−0.2382
same,Gene expression data BM230508 (A030007D23Rik),24 h average,0.282
same,Gene expression data NM_007987 (Fas),24 h average,0.06923
same,Gene expression data NM_008522 (Ltf),24 h average,0.1277
same,Gene expression data NM_008576 (Abcc1),24 h average,0.3321
same,Gene expression data NM_011176 (St14),24 h average,−0.03387
same,Gene expression data NM_011316 (Saa4),24 h average,−0.3157
same,Gene expression data NM_012006 (Acot1),24 h average,1.9403
same,Gene expression data NM_013866 (Zfp385),24 h average,−0.136
same,Gene expression data NM_018770 (Igsf4a),24 h average,−0.2065
same,Gene expression data NM_021451 (Pmaip1),24 h average,−0.7054
same,Gene expression data NM_025770 (Atg10),24 h average,0.01663
same,Gene expression data NM_028803 (Gbe1),24 h average,−0.2716
same,Gene expression data NM_030697 (Ankrd47),24 h average,−0.252
same,Gene expression data NM_053168 (Trim11),24 h average,−0.2676
same,Gene expression data NM_134188 (Acot2),24 h average,0.597
same,Gene expression data Y15910 (Diap2),24 h average,−0.366
same,Gene expression AA561726 average,48 h,−0.7419
same,Gene expression AF000969 average,48 h,−0.8319
same,Gene expression AF022072 average,48 h,0.0482
same,Gene expression AF033112 average,48 h,−0.03947
same,Gene expression AF055573 average,48 h,−0.2895
same,Gene expression AF069954 average,48 h,0.3518
same,Gene expression AF297615 average,48 h,−0.6791
same,Gene expression AF335325 average,48 h,−0.3088
same,Gene expression AI594683 average,48 h,−0.05213
same,Gene expression AI747296 average,48 h,−0.5003
same,Gene expression AK005731 average,48 h,0.01113
same,Gene expression AK007854 average,48 h,1.4303
same,Gene expression AK010447 average,48 h,−0.3256
same,Gene expression AK010738 average,48 h,0.1851
same,Gene expression AK014608 average,48 h,−0.01987
same,Gene expression AK017734 average,48 h,0.0451
same,Gene expression AK018383 average,48 h,0.2303
same,Gene expression AK019979 average,48 h,−0.5099
same,Gene expression AV095209 average,48 h,−0.3718
same,Gene expression AV141095 average,48 h,−0.5829
same,Gene expression AV173869 average,48 h,−0.3782
same,Gene expression AV216768 average,48 h,−0.6814
same,Gene expression AV219418 average,48 h,0.7839
same,Gene expression AV221299 average,48 h,0.6759
same,Gene expression AV246296 average,48 h,−0.54
same,Gene expression AV251625 average,48 h,0.07103
same,Gene expression AV254764 average,48 h,−0.006467
same,Gene expression AV327248 average,48 h,−0.09177
same,Gene expression BB009155 average,48 h,−0.5851
same,Gene expression BB027848 average,48 h,0.5378
same,Gene expression BB043558 average,48 h,0.196
same,Gene expression BB046347 average,48 h,0.2178
same,Gene expression BB140436 average,48 h,0.4693
same,Gene expression BB204486 average,48 h,−0.6445
same,Gene expression BB223872 average,48 h,0.3216
same,Gene expression BB246912 average,48 h,−0.2264
same,Gene expression BB275142 average,48 h,0.1102
same,Gene expression BB458460 average,48 h,−0.3368
same,Gene expression BB463610 average,48 h,0.0872
same,Gene expression BB730977 average,48 h,−0.9937
same,Gene expression BB743970 average,48 h,0.7664
same,Gene expression BB770528 average,48 h,−0.5594
same,Gene expression BB781615 average,48 h,−0.1164
same,Gene expression BC003284 average,48 h,0.02563
same,Gene expression BC004827 average,48 h,−0.2015
same,Gene expression BC005552 average,48 h,−0.126
same,Gene expression BC006713 average,48 h,0.4411
same,Gene expression BC010318 average,48 h,−0.02213
same,Gene expression BC012247 average,48 h,0.6286
same,Gene expression BC012955 average,48 h,0.05073
same,Gene expression BC013893 average,48 h,0.4936
same,Gene expression BC017615 average,48 h,−0.5229
same,Gene expression BC019379 average,48 h,−1.215
same,Gene expression BC019882 average,48 h,1.577
same,Gene expression BC021352 average,48 h,−1.127
same,Gene expression BC022148 average,48 h,0.456
same,Gene expression BC025169 average,48 h,−0.2222
same,Gene expression BC026131 average,48 h,−0.3489
same,Gene expression BC027026 average,48 h,0.8063
same,Gene expression BC027121 average,48 h,−0.1341
same,Gene expression BC027185 average,48 h,0.4588
same,Gene expression BE956581 average,48 h,0.1808
same,Gene expression BF719766 average,48 h,0.2652
same,Gene expression BG065754 average,48 h,0.3738
same,Gene expression BG066491 average,48 h,−1.541
same,Gene expression BG076151 average,48 h,−0.3358
same,Gene expression BG076333 average,48 h,−0.1306
same,Gene expression BG797099 average,48 h,−0.06173
same,Gene expression BG967046 average,48 h,0.0391
same,Gene expression BI651416 average,48 h,0.3502
same,Gene expression BI966443 average,48 h,0.1201
same,Gene expression BM198879 average,48 h,−0.2887
same,Gene expression BM200015 average,48 h,0.5127
same,Gene expression BM230508 average,48 h,0.0745
same,Gene expression BM936480 average,48 h,0.9169
same,Gene expression BQ174991 average,48 h,−0.3426
same,Gene expression L21027 average,48 h,−0.729
same,Gene expression NM_007556 average,48 h,0.02703
same,Gene expression NM_007980 average,48 h,1.503
same,Gene expression NM_007987 average,48 h,0.516
same,Gene expression NM_008522 average,48 h,0.1967
same,Gene expression NM_008935 average,48 h,0.02783
same,Gene expression NM_009897 average,48 h,−0.003733
same,Gene expression NM_011075 average,48 h,−0.5522
same,Gene expression NM_011176 average,48 h,−0.2632
same,Gene expression NM_011316 average,48 h,0.4369
same,Gene expression NM_012006 average,48 h,2.771
same,Gene expression NM_013642 average,48 h,−0.6535
same,Gene expression NM_013738 average,48 h,−0.2396
same,Gene expression NM_013929 average,48 h,−0.04163
same,Gene expression NM_018881 average,48 h,0.9061
same,Gene expression NM_019738 average,48 h,−0.193
same,Gene expression NM_030697 average,48 h,−0.4783
same,Gene expression NM_053122 average,48 h,−0.106
same,Gene expression NM_134147 average,48 h,0.04213
same,Gene expression NM_134188 average,48 h,0.9088
same,Gene expression X62701 average,48 h,−0.356
